Values of other authors in US6465462B1, “Substituted triazolo pyridazine derivatives as inverse agonists of the GABAAα5 receptor subtype” (Merck Sharp & Dohme Ltd., priority 1996, dated 2002).

Tests used:
[1] = reported by McNamara and Skelton, Psychobiology 21:101-108
[2] = in vivo

## COC(=O)c1cc2c(cn1)[nH]c1ccccc12 [β-CCM]
[1]
  spatial learning in the Morris watermaze: enhanced spatial learning
[2]
  proconvulsant effect: proconvulsant
